Data on one compound can be found in patent publication US12006313B1, “7-(4-((5-(benzylideneamino)-2-thioxo-1,3,4-thiadiazol-3(2H)-yl)methyl)piperazin-1-yl)-1-cyclopropyl-6-fluoro-4-oxo-1,4-dihydroquinoline-3-carboxylic acid as an anti-inflammatory and anticancer compound” (KING FAISAL UNIVERSITY, priority 2023, dated 2024).

One data set addresses Bovine Serum Albumin (Bos taurus, UniProt P02769). In words: Bovine Serum Albumin assay (BSA), inhibition of protein denaturation. The conditions noted are these: 0.4% w/v BSA, pH 6.4, 72° C. for 10 minutes, turbidity at 660 nm. The data set is classed as biochemical. As to the method:
In vitro-inflammatory activities of the tested samples were determined using a modified method of the BSA assay reported by Williams et al. BSA solution (0.4%, w/v) was prepared in Tris Buffered Saline. The pH was adjusted to 6.4 with glacial acetic acid. Different dilutions of 20, 40, 60, 80, and 100 μg/mL of the stock solutions were added to test tubes containing 1 mL of 0.4%, w/v BSA buffer solution. Both negative (solvent) and positive (aspirin) controls were assayed in a similar manner. The solutions were then heated in a water bath at 72° C. for 10 minutes and cooled for 20 minutes under laboratory conditions. The turbidity of the solutions (level of protein precipitation) was measured at 660 nm in Spectrophotometer (V-770 UV-Visible/NIR Spectrophotometer).
The percentage inhibition of precipitation (protein denaturation) was determined relative to the negative control using the following equation:
[formula] % Anti-Denaturation Activity=% Inhibition of Protein Denaturation=% Anti-inflammatory Activity

Data set [1] has as its system human osteosarcoma cells (MG-63). In words: Assessment of cytotoxicity by SRB assay, MG-63. The data set is classed as cell-based. The conditions noted are these: MG-63 cells, 72 h. The method, then: (§1) The human prostate cancer cells (PC3) and human osteosarcoma cells (MG-63) were obtained from Nawah Scientific Inc. (Mokatam, Cairo, Egypt) and cultured in DMEM (Dulbecco's modified eagle's medium), Gibco, USA, supplemented with fetal bovine serum (FBS) at a concentration of 10% and 100 U/mL of penicillin and streptomycin (PS). The Cells were incubated at 37° C. in a humidified environment that contained 5% CO2.
(§2) Cells were seeded in 96-well plates as aliquots of 100 μL cell suspension and incubated in a complete media for 24 h. afterward, cells were treated with N′-(1-naphthoyloxy)-2-(benzo[d]thiazol-2-yl)acetimidamide at diverse concentrations ranging from 0.01 μM to 100 μM for 72 h. Then, cells were fixed at 4° C. for one hour with 150 μL of 10% trichloroacetic acid (TCA). After washing the cells five times with distilled water, 70 μL of sulforhodamine (SRB) solution (0.4% w/v) was added and incubated for 10 min at room temperature in a dark place. […] Then, 150 μL of Tris pH 10.5 (10 mM) was added, and the absorbance was measured at 540 nm using a BMG LABTECH®-FLUOstar Omega microplate reader (Ortenberg, Germany). Half maximal inhibitory concentrations (IC50) values were calculated for each experiment using GraphPad Prism 6 software. […]
(§3) The inhibition was calculated using the following equation: Inhibition %=100-Average Viability

Data set [2] concerns human prostate cancer cells (PC3). In words: Assessment of cytotoxicity by SRB assay, PC3. The data set is classed as cell-based. As to conditions: 72 h. The method, then:
as §1, §2, §3
(In general: The SRB assay estimates cell density from bound dye.)

As a reminder, the melting point is the temperature, or range, at which the solid turns liquid.

Bovine Serum Albumin, sequence (P02769 25-607): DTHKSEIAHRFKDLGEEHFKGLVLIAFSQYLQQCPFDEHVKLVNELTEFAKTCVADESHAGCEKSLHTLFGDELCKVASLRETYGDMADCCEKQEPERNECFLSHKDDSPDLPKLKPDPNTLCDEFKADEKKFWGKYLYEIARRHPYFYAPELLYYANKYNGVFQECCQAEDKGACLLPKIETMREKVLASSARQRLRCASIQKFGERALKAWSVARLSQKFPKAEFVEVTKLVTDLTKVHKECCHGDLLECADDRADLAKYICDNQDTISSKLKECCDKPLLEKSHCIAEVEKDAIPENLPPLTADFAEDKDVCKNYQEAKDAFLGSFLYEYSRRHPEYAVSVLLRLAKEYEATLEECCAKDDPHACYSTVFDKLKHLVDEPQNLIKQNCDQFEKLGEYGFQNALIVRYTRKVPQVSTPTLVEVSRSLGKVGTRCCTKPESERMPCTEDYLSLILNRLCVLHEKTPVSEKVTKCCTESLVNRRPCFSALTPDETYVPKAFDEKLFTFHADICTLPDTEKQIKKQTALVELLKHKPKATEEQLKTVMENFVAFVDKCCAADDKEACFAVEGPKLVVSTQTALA

`O=C(O)c1cn(C2CC2)c2cc(N3CCN(Cn4nc(/N=C/c5ccccc5)sc4=S)CC3)c(F)cc2c1=O` [7-(4-((5-(benzylideneamino)-2-thioxo-1,3,4-thiadiazol-3(2H)-yl)methyl)piperazin-1-yl)-1-cyclopropyl-6-fluoro-4-oxo-1,4-dihydroquinoline-3-carboxylic acid]: the melting point fell in the range of 241 to 243 °C. Moreover, the “in vitro anti-inflammatory activity (inhibition of protein denaturation)” value on Bovine Serum Albumin is reported as “considerable anti-inflammatory effect”. Besides, the antiproliferative activity result in data set [1] is reported as “excellent antiproliferative activities”. For the same compound, in data set [2], the antiproliferative activity entry was “excellent antiproliferative activities”.
